From patent publication US8617872B2, “Compositions for culturing spirochetes” (priority 2000, dated 2013)

Legend:
Format in all cases: cell-based
Tatumella = assay: Antibiotic susceptibility test (MICROSCAN or disc diffusion), control organism Tatumella; conditions: total isolates 2
From the text: (§1) This example describes the preparation of a pellet used for antimicrobial susceptibility testing of a culture sample. The procedure begins with a culture (e.g., prepared in the manner described in Example 2), where serum from a patient is inoculated in GSI-1 media and allowed to grow. In order to form pellet, an aliquot of this culture sample is placed in a microcentrifuge tube along with 10% SDS solution, and centrifuged at 14,000 g to disrupt the spirochetes and maximize the number of available eptiopic sites. The disrupted spirochetes were then cultured in an alternative growth medium made up of one part GSI-1 medium, one part 6.5% lactalbumin hydrolysate, one part 2% brain heart infusion, one part 10% pluronic fluid, and one part of the isolated (disrupted) spirochetes. This inoculated alternative growth medium was then allowed to incubate in the closed micro centrifuge tube until a distinctive pellet was observed (typically 7-14 days).
(§2) Following the observation of pellet formation, the tube was vortexed and incubated at 35° C. until a MacFarlane standard of between 8 to 12% turbidity was achieved. MICROSCAN antibiotic susceptibility microtiter plates were then inoculated with (e.g., 110 μl of) inoculum and allowed to incubate at 35° C. for 16-20 hours. The microtiter plates were then scanned for growth and respective sensitivity reaction (both the control well and the growth well). Table 2 below lists the various antimicrobials tested with this sample and whether growth of the organism was inhibited (susceptible) or whether the growth of the organism was not inhibited (resistant).
(§3) This Example describes the results for susceptibility tests that were performed on a large number of patient samples positive for either Borrelia or Leptospira. […] The results presented in Table 3 reveal the varied response of different types of spirochetes to different antibiotics.

Borrelia = assay: Antibiotic susceptibility test (MICROSCAN or disc diffusion) of patient samples positive for Borrelia; conditions: total isolates 519
From the text: as §1, §2, §3

Leptospira [1] = assay: Susceptibility testing of Leptospira isolated from a patient with symptoms of multiple sclerosis; conditions: for Antibiotic Susceptibility Results, SERUM: Leptospira culture from serum of multiple sclerosis patient; for Antibiotic Susceptibility Results, URINE: Leptospira culture from urine of multiple sclerosis patient
Experimental: This example describes the preparation of a pellet used for antimicrobial susceptibility testing of a culture sample. […] In order to form pellet, an aliquot of this culture sample is placed in a microcentrifuge tube along with 10% SDS solution, and centrifuged at 14,000 g to disrupt the spirochetes and maximize the number of available eptiopic sites. […] This inoculated alternative growth medium was then allowed to incubate in the closed micro centrifuge tube until a distinctive pellet was observed (typically 7-14 days).
MICROSCAN antibiotic susceptibility microtiter plates were then inoculated with (e.g., 110 μl of) inoculum and allowed to incubate at 35° C. for 16-20 hours. The microtiter plates were then scanned for growth and respective sensitivity reaction (both the control well and the growth well).

Leptospira [2] = assay: Antibiotic susceptibility test (MICROSCAN or disc diffusion) of patient samples positive for Leptospira; conditions: total isolates 276
From the text: as §1, §2, §3

Leptospira [3] = assay: Susceptibility testing of Leptospira isolated from a patient with symptoms of rheumatoid arthritis; conditions: for Antibiotic Susceptibility Results, SERUM: Leptospira culture from serum of rheumatoid arthritis patient; for Antibiotic Susceptibility Results, URINE: Leptospira culture from urine of rheumatoid arthritis patient
From the text: as §1
as §2, with “well).” for “well). Table 2 below lists the various antimicrobials tested with this sample and whether growth of the organism was inhibited (susceptible) or whether the growth of the organism was not inhibited (resistant).”
This Example describes the diagnosis and treatment of a human patient with symptoms of rheumatoid arthritis. In particular, serum and urine samples from this patient were initially cultured on GSI-1 (e.g., as described in Example 2), and screened for the presence of spirochetes (e.g., as described in Example 3). […] These cultures were then used to produce pellets for antimicrobial susceptibility testing (e.g., as described in Example 6). The antimicrobial susceptibility tests were then carried out on each sample (e.g., as described in Example 7) with the antimicrobials listed below in Table 5.

E. coli = assay: Antibiotic susceptibility test (MICROSCAN or disc diffusion), control organism E. coli; conditions: total isolates 1
Y. entero gp. = assay: Antibiotic susceptibility test (MICROSCAN or disc diffusion), control organism Y. entero gp.; conditions: total isolates 1
Treponema isolate = assay: Antimicrobial susceptibility test (MICROSCAN plates) of a patient's Treponema isolate; conditions: Treponema infected patient's isolate; MICROSCAN plates, 35° C., 16-20 hours
Experimental: For susceptibility testing, the organisms harvested could be assayed using any suitable susceptibility assay (See, Example 7). In some embodiments of the present invention, MICROSCAN antibiotic susceptibility plates were inoculated and incubated. Following incubations, plates were scanned for growth and respective sensitivity reaction. […] For the results to be considered reliable, the no growth of organisms was accepted in the negative control well, while the positive control well had to have sufficient growth to be read. In some embodiments of the present invention, to confirm the presence or absence of growing spirochetes in the growth well, aliquots from the growth well were reinoculated with fresh growth media and after an incubation time (e.g., 7-10 days) the presence of the organisms was confirmed (e.g., by phase contrast microscopy or direct fluorescent antibody staining).
as §1
This example describes an antimicrobial susceptibility test performed for a human patient. The patient had previously been testing using GSI-1 medium (e.g., as described in Example 2) for the presence of any spirochetes. […] This culture sample was then transferred to a microcentrifuge tube, and a pellet for antimicrobial susceptibility testing was prepared as described in Example 6.
as §2

Pseudomonas = assay: Antibiotic susceptibility test (MICROSCAN or disc diffusion), control organism Pseudomonas; conditions: total isolates 1
A. lwoffii = assay: Antibiotic susceptibility test (MICROSCAN or disc diffusion), control organism A. lwoffii; conditions: total isolates 1

CC1(C)S[C@@H]2[C@H](NC(=O)[C@H](N)c3ccccc3)C(=O)N2[C@H]1C(=O)O [Ampicillin]
Antibiotic Susceptibility Test Results, Tatumella (Tatumella): 100%
Antibiotic Susceptibility Test Results, Borrelia (Borrelia): 61%
Antibiotic Susceptibility Results, SERUM (Leptospira [1]): Resistant
Antibiotic Susceptibility Results, URINE (Leptospira [1]): Resistant
Antibiotic Susceptibility Test Results, Leptospira (Leptospira [2]): 54%
Antibiotic Susceptibility Results, SERUM (Leptospira [3]): Resistant
Antibiotic Susceptibility Results, URINE (Leptospira [3]): Resistant
Antibiotic Susceptibility Test Results, E. coli (E. coli): 100%
Antibiotic Susceptibility Test Results, Y. entero gp. (Y. entero gp.): 100%
RESULT (antibiotic susceptibility) (Treponema isolate): Susceptible

CC[C@H]1OC(=O)[C@H](C)[C@@H](O[C@H]2C[C@@](C)(OC)[C@@H](O)[C@H](C)O2)[C@H](C)[C@@H](O[C@@H]2O[C@H](C)C[C@H](N(C)C)[C@H]2O)[C@](C)(O)C[C@@H](C)CN(C)[C@H](C)[C@@H](O)[C@]1(C)O [Azithromycin]
Antibiotic Susceptibility Results, SERUM (Leptospira [1]): Resistant
Antibiotic Susceptibility Results, URINE (Leptospira [1]): Resistant
Antibiotic Susceptibility Results, SERUM (Leptospira [3]): Resistant
Antibiotic Susceptibility Results, URINE (Leptospira [3]): Resistant

Cc1nnc(SCC2=C(C(=O)O)N3C(=O)[C@@H](NC(=O)Cn4cnnn4)[C@H]3SC2)s1 [Cefazolin]
RESULT (antibiotic susceptibility) (Treponema isolate): Resistant

CO/N=C(\C(=O)N[C@@H]1C(=O)N2C(C(=O)[O-])=C(C[N+]3(C)CCCC3)CS[C@H]12)c1csc(N)n1 [Cefepime]
Antibiotic Susceptibility Test Results, Tatumella (Tatumella): 0%
Antibiotic Susceptibility Test Results, Borrelia (Borrelia): 49%
Antibiotic Susceptibility Test Results, Pseudomonas (Pseudomonas): 100%
Antibiotic Susceptibility Test Results, Leptospira (Leptospira [2]): 54%
Antibiotic Susceptibility Test Results, A. lwoffii (A. lwoffii): 100%
Antibiotic Susceptibility Test Results, E. coli (E. coli): 100%
Antibiotic Susceptibility Test Results, Y. entero gp. (Y. entero gp.): 100%

CO/N=C(\C(=O)N[C@@H]1C(=O)N2C(C(=O)O)=C(COC(N)=O)CS[C@H]12)c1ccco1 [Cefuroxime]
Antibiotic Susceptibility Test Results, Tatumella (Tatumella): 0%
Antibiotic Susceptibility Test Results, Borrelia (Borrelia): 59%
Antibiotic Susceptibility Results, SERUM (Leptospira [1]): Resistant
Antibiotic Susceptibility Results, URINE (Leptospira [1]): Resistant
Antibiotic Susceptibility Test Results, Leptospira (Leptospira [2]): 59%
Antibiotic Susceptibility Results, SERUM (Leptospira [3]): Resistant
Antibiotic Susceptibility Results, URINE (Leptospira [3]): Resistant
Antibiotic Susceptibility Test Results, E. coli (E. coli): 100%
Antibiotic Susceptibility Test Results, Y. entero gp. (Y. entero gp.): 100%

CC(=O)OCC1=C(C(=O)O)N2C(=O)[C@@H](NC(=O)Cc3cccs3)[C@H]2SC1 [Cephalothin]
RESULT (antibiotic susceptibility) (Treponema isolate): Susceptible

CC[C@H]1OC(=O)[C@H](C)[C@@H](O[C@H]2C[C@@](C)(OC)[C@@H](O)[C@H](C)O2)[C@H](C)[C@@H](O[C@@H]2O[C@H](C)C[C@H](N(C)C)[C@H]2O)[C@](C)(OC)C[C@@H](C)C(=O)[C@H](C)[C@@H](O)[C@]1(C)O [Clarithromycin]
Antibiotic Susceptibility Results, SERUM (Leptospira [1]): Resistant
Antibiotic Susceptibility Results, URINE (Leptospira [1]): Resistant
Antibiotic Susceptibility Results, SERUM (Leptospira [3]): Resistant
Antibiotic Susceptibility Results, URINE (Leptospira [3]): Resistant

CCC[C@@H]1C[C@@H](C(=O)N[C@@H]([C@H]2O[C@H](SC)[C@H](O)[C@@H](O)[C@H]2O)[C@H](C)Cl)N(C)C1 [Clindamycin]
Antibiotic Susceptibility Results, SERUM (Leptospira [1]): Resistant
Antibiotic Susceptibility Results, URINE (Leptospira [1]): Resistant
Antibiotic Susceptibility Results, SERUM (Leptospira [3]): Resistant
Antibiotic Susceptibility Results, URINE (Leptospira [3]): Resistant

CC[C@H]1OC(=O)[C@H](C)[C@@H](O[C@H]2C[C@@](C)(OC)[C@@H](O)[C@H](C)O2)[C@H](C)[C@@H](O[C@@H]2O[C@H](C)C[C@H](N(C)C)[C@H]2O)[C@](C)(O)C[C@@H](C)C(=O)[C@H](C)[C@@H](O)[C@]1(C)O [Erythromycin]
Antibiotic Susceptibility Results, SERUM (Leptospira [1]): Resistant
Antibiotic Susceptibility Results, URINE (Leptospira [1]): Resistant
Antibiotic Susceptibility Results, SERUM (Leptospira [3]): Resistant
Antibiotic Susceptibility Results, URINE (Leptospira [3]): Resistant

C[C@@H](O)[C@H]1C(=O)N2C(C(=O)O)=C(SCCN=CN)C[C@H]12 [Imipenem]
Antibiotic Susceptibility Test Results, Tatumella (Tatumella): 100%
Antibiotic Susceptibility Test Results, Borrelia (Borrelia): 84%
Antibiotic Susceptibility Test Results, Pseudomonas (Pseudomonas): 100%
Antibiotic Susceptibility Results, SERUM (Leptospira [1]): Resistant
Antibiotic Susceptibility Results, URINE (Leptospira [1]): Resistant
Antibiotic Susceptibility Test Results, Leptospira (Leptospira [2]): 77%
Antibiotic Susceptibility Test Results, A. lwoffii (A. lwoffii): 100%
Antibiotic Susceptibility Test Results, E. coli (E. coli): 100%
Antibiotic Susceptibility Test Results, Y. entero gp. (Y. entero gp.): 100%

CC1(C)S[C@@H]2[C@H](NC(=O)[C@H](NC(=O)N3CCN(S(C)(=O)=O)C3=O)c3ccccc3)C(=O)N2[C@H]1C(=O)O [Mezlocillin]
RESULT (antibiotic susceptibility) (Treponema isolate): Susceptible

CCN[C@@H]1C[C@H](N)[C@@H](O[C@H]2OC(CN)=CC[C@H]2N)[C@H](O)[C@H]1O[C@H]1OC[C@](C)(O)[C@H](NC)[C@H]1O [Netilmicin]
RESULT (antibiotic susceptibility) (Treponema isolate): Resistant

CCn1cc(C(=O)O)c(=O)c2cc(F)c(N3CCNCC3)cc21 [Norfloxacin]
Antibiotic Susceptibility Results, URINE (Leptospira [1]): Susceptible
Antibiotic Susceptibility Results, URINE (Leptospira [3]): Susceptible

CO[C@H]1/C=C/O[C@@]2(C)Oc3c(C)c(O)c4c(O)c(c(/C=N/N5CCN(C)CC5)c(O)c4c3C2=O)NC(=O)/C(C)=C\C=C\[C@H](C)[C@H](O)[C@@H](C)[C@@H](O)[C@@H](C)[C@H](OC(C)=O)[C@@H]1C [Rifampin]
Antibiotic Susceptibility Results, SERUM (Leptospira [1]): Resistant
Antibiotic Susceptibility Results, URINE (Leptospira [1]): Resistant
Antibiotic Susceptibility Results, SERUM (Leptospira [3]): Resistant
Antibiotic Susceptibility Results, URINE (Leptospira [3]): Resistant

CN(C)[C@@H]1C(O)=C(C(N)=O)C(=O)[C@@]2(O)C(O)=C3C(=O)c4c(O)cccc4[C@@](C)(O)[C@H]3C[C@@H]12 [Tetracycline]
Antibiotic Susceptibility Results, SERUM (Leptospira [1]): Resistant
Antibiotic Susceptibility Results, URINE (Leptospira [1]): Resistant
Antibiotic Susceptibility Results, SERUM (Leptospira [3]): Resistant
Antibiotic Susceptibility Results, URINE (Leptospira [3]): Resistant
RESULT (antibiotic susceptibility) (Treponema isolate): Resistant

CC1(C)S[C@@H]2[C@H](NC(=O)[C@H](C(=O)O)c3ccsc3)C(=O)N2[C@H]1C(=O)O [Ticarcillin]
RESULT (antibiotic susceptibility) (Treponema isolate): Susceptible

Ampicillin/Sulbactam
RESULT (antibiotic susceptibility) (Treponema isolate): Susceptible

Penicillin
Antibiotic Susceptibility Results, SERUM (Leptospira [3]): Resistant
Antibiotic Susceptibility Results, URINE (Leptospira [3]): Resistant

Piperacillin/Tazobactam
Antibiotic Susceptibility Test Results, Tatumella (Tatumella): 100%
Antibiotic Susceptibility Test Results, Borrelia (Borrelia): 88%
Antibiotic Susceptibility Test Results, Pseudomonas (Pseudomonas): 100%
Antibiotic Susceptibility Results, SERUM (Leptospira [1]): Intermediate
Antibiotic Susceptibility Results, URINE (Leptospira [1]): Intermediate
Antibiotic Susceptibility Test Results, Leptospira (Leptospira [2]): 86%
Antibiotic Susceptibility Results, SERUM (Leptospira [3]): Intermediate
Antibiotic Susceptibility Results, URINE (Leptospira [3]): Intermediate
Antibiotic Susceptibility Test Results, E. coli (E. coli): 100%
Antibiotic Susceptibility Test Results, Y. entero gp. (Y. entero gp.): 100%

Trimethoprim Sulfate
Antibiotic Susceptibility Results, SERUM (Leptospira [3]): Susceptible
Antibiotic Susceptibility Results, URINE (Leptospira [3]): Susceptible

Trimethoprim/Sulfamethoxazole
Antibiotic Susceptibility Results, SERUM (Leptospira [1]): Susceptible
Antibiotic Susceptibility Results, URINE (Leptospira [1]): Susceptible
RESULT (antibiotic susceptibility) (Treponema isolate): Resistant
